The values below come from patent US20090105562A1, “SYSTEM AND METHODS FOR SCREENING OR ANALYZING TARGETS” (TAIPEI VETERANS GENERAL HOSPITAL, priority 2007, published 2009).

What all share (assay type): cell-based, rat
One assay relates to LPS-treated NSCs. As to the kind of experiment: ELISA of IL-1β, IL-6 and TNF-α in LPS-treated NSCs. The method, then:
IM was purchased from Sigma Chem. Co., St Louis, Mo., USA. NSCs were seeded on 24-well plates at a density of 2×10^4 cells/well in medium, followed by methyl thiazol tetrazolium assay (MTT assay) (Sigma-Aldrich Co., St Louis, Mo., USA) for cell viability. NSCs were incubated with 0.25 mg/ml MTT for 4 hours at 37° C. and the reaction was terminated by the addition of 100% isopropanol. The amount of MTT fromazon product was determined using a microplate reader and the absorbance was measured at 560 nm (SpectraMax 250, Molecular Devices, Sunnyvale, Calif., USA). NSCs were exposed to 0, 1, 2, 5, 10, 20, 30, 40, 50, 100, 200, and 300 μM of IM for 1, 3, 5, and 7 days, respectively. The activities of caspases 8 and 3 (Medical and Biological Laboratories Co., Ltd., Nagoya, Japan), and the concentration of IL-6, IL-1 and TNF-α (Pharmingen, San Diego, Calif., USA) were determined by ELISA kits and quantified by reading at 490 nm (MRX; Dynatech Laboratories, Chantilly, Va., USA). Each individual sample was analyzed in triplicate.
(§1) Double-stranded, short interfering RNA (siRNA) of BDNF and Bcl-2 were chemically synthesized by Ambion Inc., Austin, Tex., USA). The sense and antisense sequences of BDNF were designed as follows: Sense: […]tt; Antisense: AGCTTAAAAAGAG CTGtt, starting from nucleotide 137 of the Bcl-2 sequence (accession number L14680). The sense and antisense sequences of Bcl-2 were designed as follows: Sense: GCGCUGGAUAUAACUUCUUtt; Antisense: AAGAAGUUAUAUC CAGCGCtt, starting from nucleotide 137 of the Bcl-2 sequence (accession number L14680). In this test, the siRNA control used was siRNA-Cy3 (QIAGEN; sense sequence: UUCUCCGAACGUGU CACGUdTdT-3′-Cy3 and the complement 5′-ACGUGACACGUUCGGAGAAdTdT-3′-Cy3) as an irrelevant control. The transfection of siRNA was performed using Lipofectamine 2000 (Invitrogen, Carlsbad, Calif., USA) according to the manufacturer's instructions. In brief, cells were harvested with 0.25% trypsin, 1 mM ethylenediaminetetraacetic acid (EDTA) in phosphate buffered saline (PBS) without Ca^2+ and Mg^2+, and plated in six-well plates at 10^5 per cm^2. Then 3.5 μl siRNA (100 μM solution) was mixed with 125 μl serum-free culture medium for 5 minutes at room temperature. During this incubation period, 5 μl of Lipofectamine 2000 was diluted in 125 μl serum-free culture medium. These two mixtures were combined, mixed gently, and incubated for 20 minutes at room temperature for complex formation. This 250 μl of siRNA-Lipofectamine mixture was then added into the cells in a final volume of 2.5 ml per well. The transfected cells were cultured and fed daily with fresh medium until they were assayed.

A further assay has as its system NSCs. Kind of assay: 5-HT in culture medium of NSCs by microdialysis with HPLC-ECD. As to conditions: p<0.05. The method, then:
A microdialysis sampling system connected to the Petri dish was constructed in our laboratory according to the design originally described by Cheng et al., J. Chromatogr. A. 870, 405-411, 2000. The dialysis probe was made of a dialysis membrane 30 mm in length, with an outer diameter of 150 μm, and a nominal molecular weight cut-off of 13000. Ringer solution ([…]) was perfused through the probe at a flow-rate of 2 μl/min. Microdialysate samples were collected every 10 minutes. An HPLC-ED system (HTEC-500; Eicom, Kyoto, Japan) consisting of a three-electrode cell with an Ag/AgCl electrode as the reference electrode, a counter electrode and a graphite electrode as the working electrode was used to measure determine the levels of serotonin (5-HT). […] The column used for separation at room temperature (25° C.) was a PP-ODS (4.6×30 mm) (Eicom, Kyoto, Japan). The mobile phase, containing 0.1 M sodium phosphate buffer (0.1 M NaH2PO4: 0.1 M Na2HPO4=1000:160, v/v), 1% methanol, 500 mg/l sodium secanesulfonate and 50 mg/l EDTA, was adjusted to pH 6.0 with 5 M of NaOH with a flow rate of 0.5 ml/min. A volume of 10 μl of each microdialysate was injected manually into the chromatographic system and assayed on the same sampling day.

The subject of another assay is Bcl-2. Kind of assay: Bcl-2 protein expression in NSCs by western blot and immunocytochemistry. The procedure: After the treatment with IM, the cell lysates of the NSCs were collected and the concentration of protein was determined by using the Protein Assay kit (Bio-Rad, Hercules, Calif., USA). Cell extracts with sample buffer were boiled for 5 minutes and then separated by 10% SDS-PAGE gel. After electrophoresis, the gel was transferred onto a PVDF membrane for immunoblotting. The membrane was first blocked by incubation in non-fat milk at room temperature for 2 hours, then incubated with anti-Bcl-2 antibody (Upstate Biotechnology Inc, Waltham, Mass., USA), and anti-β actin (Chemicon International Inc, Temecula, Calif., USA) for 2 hours at room temperature, washed five times with Tris-Buffered Saline Tween-20 (TBST), and then incubated further at room temperature with horseradish peroxidase-conjugated secondary antibody for 2 hours. Then the membrane was washed six times with TBST and specific bands were made visible by chemiluminescence (Santa Cruz Biotechnology, Santa Cruz, Calif., USA).
as §1
An avidin-biotin complex method was used for the immunohistochemical staining in the differentiated NSCs. Following washes with the 3% hydrogen peroxide, sodium azide and antigens were retrieved using a microwave. Each slide was then treated with antibodies for Bcl-2 (Upstate Biotechnology, Waltham, Mass., USA), Nestin (Chemicon, Temecula, Calif., USA), 4′, 6-diamidino-2-phenylindole (DAPI; Chemicon, Temecula, Calif., USA) and MAP2 (Chemicon, Temecula, Calif., USA). Immunoreactive signals were detected with a mixture of biotinylated rabbit anti-mouse IgG and Fluoresave (Calbiochem, La Jolla, Calif., USA) under confocal microscopy (Olympus, FV300). Each individual sample was analyzed in triplicate. Furthermore, apoptotic cells were identified by the TUNEL method (In Situ Cell Death Detection Kit, POD, Roche Boehringer Mannheim Corp., IN, USA) as described in Chiou et al., J. Immunol. 167, 4098-4103, 2001. Briefly, the cells with cover slips were washed with 1× phosphate buffered saline (PBS), fixed with 4% of paraformaldehyde for 10 minutes, permeabilized with 0.1% of triton X-100 for 5 mins, and incubated with the TUNEL reagent provided for 1 hour. Chromogenic development was then applied with 3-amino-9-ethyl-carbazole, and slides were counterstained with H & E stain. […]

Where [1] appears, read: vs only LPS-treated NSCs, IM 3 μM, p<0.05.
Setting [2] is: agent added to LPS-treated NSCs with IM, U0126 40 μM.

As to `CN(C)CCCN1c2ccccc2CCc2ccccc21` [IM, imipramine], in the assay on LPS-treated NSCs (setting [1]), the “IL-1β production in LPS-treated NSCs” value is recorded as “effectively reduces”, the “IL-6 production in LPS-treated NSCs” value was “effectively reduces” and the “TNF-α production in LPS-treated NSCs” value is recorded as “effectively reduces”. In the assay on NSCs (Day 7 and Day 14, IM-treated vs without IM-treatment NSCs), the “5-HT level in culture medium” value was “significantly higher”. Moreover, the “protein expression level of Bcl-2 in LPS-treated NSCs” value in the assay on Bcl-2 (3 μM IM vs 1, 2 μM IM-LPS-treated, only LPS-treated and control groups) is “significantly increased”. Besides, the “protein level of Bcl-2 (western blot)” value in the assay with Bcl-2 (Day 3 IM-treated vs Day 3 non-IM-treated NSCs, p<0.05) is “higher”. Moreover, the “protein expression of Bcl-2 (immunohistochemistry)” value in the assay on Bcl-2 (Day 7 IM-treated NSCs vs NSCs without IM treatment) is reported as “significantly increased”. For the same molecule, in the assay with Bcl-2 (Day 7 IM-treated vs Day 3 or Day 5 IM-treated NSCs, p<0.05), the “expression level of Bcl-2 protein (western blot)” value is reported as “significantly increased”. The “Bcl-2 expression in NSCs” value in the assay on Bcl-2 (treatment with either agent alone) is “activate”.
Consider `N#CC(=C(/N)Sc1ccccc1N)/C(C#N)=C(\N)Sc1ccccc1N` [U0126], for which, in the assay on LPS-treated NSCs (setting [2]), the “level of IL-1β in LPS-treated NSCs with IM” value is “significantly increased”, the “level of IL-6 in LPS-treated NSCs with IM” value is recorded as “significantly increased” and the “level of TNF-α in LPS-treated NSCs with IM” value is reported as “significantly increased”. Further, the “production of 5-HT of IM-treated NSCs” value with NSCs (agent added, Day 7 and Day 14) is given as “significantly diminished”. In addition, in the assay with Bcl-2 (agent added to IM-treated NSCs), the “Bcl-2 expression induced by IM in NSCs” value is given as “effectively blocked”.
